Where two headings read alike, the source gives them in different places.
Columns and labels:
Jack bean urease = Jack bean urease (Canavalia ensiformis, UniProt P07374); experiment: biochemical
Protocol: All the synthesized derivatives were subjected to anti-urease activity. In preliminary screening, all compounds were evaluated at 1 mM concentrations, and percentage inhibition was used as an indicator of activity. IC50 values were calculated for the scaffolds having percentage inhibition higher than 50%.
Indophenol method was used to perform the urease inhibition. 10 µL of enzyme, 40 µL buffer, 10 µL of assay moiety, 40-µL each of phenol-reagents, and alkali reagent were present in the assay mixture. Firstly, incubation of assay compounds and enzyme was done in assay buffer at 37 °C for 30 min. Then, alkaline reagents and 40 µL of phenol were mixed to quench the mixture. 96 well plates were used in enzyme assay and for reading of absorbance at 625 nm a microplate reader was helpful. The experiment was done in triplicate and PRISM 4.0 was used to get IC50, positive control was thiourea.

Chain of Jack bean urease (P07374 whole entry, looked up): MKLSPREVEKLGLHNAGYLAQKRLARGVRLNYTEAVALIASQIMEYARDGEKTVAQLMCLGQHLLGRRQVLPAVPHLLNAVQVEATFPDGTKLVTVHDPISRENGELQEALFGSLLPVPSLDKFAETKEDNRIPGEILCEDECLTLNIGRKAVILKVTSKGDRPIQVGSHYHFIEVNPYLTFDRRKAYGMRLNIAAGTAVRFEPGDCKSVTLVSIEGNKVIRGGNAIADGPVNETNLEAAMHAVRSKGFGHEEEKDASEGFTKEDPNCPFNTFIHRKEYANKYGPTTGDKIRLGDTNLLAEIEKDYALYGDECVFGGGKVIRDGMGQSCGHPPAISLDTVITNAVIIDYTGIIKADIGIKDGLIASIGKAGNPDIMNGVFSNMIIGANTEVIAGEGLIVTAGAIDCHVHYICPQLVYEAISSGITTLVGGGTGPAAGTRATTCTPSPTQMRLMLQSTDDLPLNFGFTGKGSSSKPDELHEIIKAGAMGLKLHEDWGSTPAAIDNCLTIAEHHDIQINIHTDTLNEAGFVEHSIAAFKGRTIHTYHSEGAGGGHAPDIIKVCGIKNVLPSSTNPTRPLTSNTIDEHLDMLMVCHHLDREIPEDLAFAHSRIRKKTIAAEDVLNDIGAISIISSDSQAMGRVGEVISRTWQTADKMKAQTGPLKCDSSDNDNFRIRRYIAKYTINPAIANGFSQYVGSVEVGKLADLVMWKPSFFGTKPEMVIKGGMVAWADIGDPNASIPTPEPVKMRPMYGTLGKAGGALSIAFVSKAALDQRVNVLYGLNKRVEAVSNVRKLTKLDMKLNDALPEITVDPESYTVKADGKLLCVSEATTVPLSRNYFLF

Structure (SMILES) | IC50 urease inhibition (Jack bean urease; incubation 37 °C 30 min, absorbance 625 nm, triplicate, positive control thiourea) | melting point [°C] | IC50 (Jack bean urease) [µM] | Potency relative to standard thiourea (Jack bean urease; ratio of urease IC50 values) [times] | IC50 (Jack bean urease; incubation 37 °C 30 min, absorbance 625 nm, triplicate, positive control thiourea, read-out: IC50 urease inhibition) [µM]
O=S(=O)(Nc1ncccn1)c1ccc(N=Cc2cc(Br)ccc2O)cc1 [3c, 4-(5-Bromo-2-hydroxybenzylideneamino)-N-(pyrimidin-2-yl)benzenesulfonamide] | inactivation of the compound | – | – | – | –
O=S(=O)(Nc1ncccn1)c1ccc(N=Cc2ccc(O)cc2O)cc1 [3k, 4-(2,4-Dihydroxybenzylideneamino)-N-(pyrimidin-2-yl)benzenesulfonamide] | – | 280 to 282 | 12.1 ± 2.43 | – | –
O=S(=O)(Nc1ncccn1)c1ccc(N=Cc2ccc(F)cc2F)cc1 [3r, 4-(2,4-Difluorobenzylideneamino)-N-(pyrimidin-2-yl)benzenesulfonamide] | – | 279 to 281 | 13.1 ± 2.55 | – | –
O=S(=O)(Nc1ncccn1)c1ccc(N=Cc2ccc(F)cc2Br)cc1 [3l, 4-(2-Bromo-4-fluorobenzylideneamino)-N-(pyrimidin-2-yl)benzenesulfonamide] | – | 285 to 287 | 2.21 ± 0.45 | 10 | –
O=S(=O)(Nc1ncccn1)c1ccc(N=Cc2ccc(F)cc2Cl)cc1 [3m, 4-(2-Chloro-4-fluorobenzylideneamino)-N-(pyrimidin-2-yl)benzenesulfonamide] | – | 277 to 279 | 15.7 ± 2.45 | – | –
O=S(=O)(Nc1ncccn1)c1ccc(N=Cc2ccccc2O)cc1 [3b, 4-(2-Hydroxybenzylideneamino)-N-(pyrimidin-2-yl)benzenesulfonamide] | – | – | 3.29 ± 2 | – | –
O=[N+]([O-])c1ccc(C=Nc2ccc(S(=O)(=O)Nc3ncccn3)cc2)cc1 [3e, 4-(4-Nitrobenzylideneamino)-N-(pyrimidin-2-yl)benzenesulfonamide] | – | 274 to 276 | 4.15 ± 0.77 | – | –
O=S(=O)(Nc1ncccn1)c1ccc(N=Cc2ccc(Cl)cc2F)cc1 [3p, 4-(4-Chloro-2-fluorobenzylideneamino)-N-(pyrimidin-2-yl)benzenesulfonamide] | – | 275 to 277 | 17.07 ± 0.02 | – | –
Cc1ccc(C=Nc2ccc(S(=O)(=O)Nc3ncccn3)cc2)c(O)c1 [3u, 4-(2-Hydroxy-4-methylbenzylideneamino)-N-(pyrimidin-2-yl)benzenesulfonamide] | – | 279 to 281 | – | – | –
O=S(=O)(Nc1ncccn1)c1ccc(N=Cc2ccc(Cl)cc2O)cc1 [3i, 4-(4-Chloro-2-hydroxybenzylideneamino)-N-(pyrimidin-2-yl)benzenesulfonamide] | – | 285 to 287 | 25.56 ± 0.22 | – | –
O=S(=O)(Nc1ncccn1)c1ccc(N=Cc2ccccc2)cc1 [3a, 4-(Benzylideneamino)-N-(pyrimidin-2-yl)benzenesulfonamide] | – | 269 to 271 | 2.32 ± 0.54 | – | –
COc1ccc(C=Nc2ccc(S(=O)(=O)Nc3ncccn3)cc2)cc1 [3h, 4-(4-Methoxybenzylideneamino)-N-(pyrimidin-2-yl)benzenesulfonamide] | – | 287 to 289 | 45.6 ± 0.56 | – | –
CN(C)c1ccc(C=Nc2ccc(S(=O)(=O)Nc3ncccn3)cc2)cc1 [3f, 4-(4-(Dimethylamino)benzylideneamino)-N-(pyrimidin-2-yl)benzenesulfonamide] | – | 275 to 277 | 13.14 ± 0.02 | – | –
NC(N)=S [thiourea, reference compound] | – | – | – | – | 20 ± 2.06
O=S(=O)(Nc1ncccn1)c1ccc(N=Cc2ccc(F)cc2)cc1 [3g, 4-(4-Fluorobenzylideneamino)-N-(pyrimidin-2-yl)benzenesulfonamide] | – | 283 to 285 | 10.1 ± 0.45 | – | –
O=S(=O)(Nc1ncccn1)c1ccc(N=Cc2ccc(Cl)cc2Cl)cc1 [3q, 4-(2,4-Dichlorobenzylideneamino)-N-(pyrimidin-2-yl)benzenesulfonamide] | – | 291 to 293 | 4.05 ± 1.1 | – | –
O=S(=O)(Nc1ncccn1)c1ccc(N=Cc2ccc(Br)cc2Br)cc1 [3s, 4-(2,4-Dibromobenzylideneamino)-N-(pyrimidin-2-yl)benzenesulfonamide] | – | 273 to 275 | 6.09 ± 0.45 | – | –
O=S(=O)(Nc1ncccn1)c1ccc(N=Cc2ccc(Br)cc2F)cc1 [3n, 4-(4-Bromo-2-fluorobenzylideneamino)-N-(pyrimidin-2-yl)benzenesulfonamide] | – | 291 to 293 | 18.2 ± 1.78 | – | –
O=S(=O)(Nc1ncccn1)c1ccc(N=Cc2ccc(Cl)cc2Br)cc1 [3o, 4-(2-Bromo-4-chlorobenzylideneamino)-N-(pyrimidin-2-yl)benzenesulfonamide] | – | 277 to 279 | 5.04 ± 0.4 | – | –
O=S(=O)(Nc1ncccn1)c1ccc(N=Cc2ccc(F)cc2O)cc1 [3j, 4-(4-Fluoro-2-hydroxybenzylideneamino)-N-(pyrimidin-2-yl)benzenesulfonamide] | – | 279 to 281 | 19 ± 1.23 | – | –
COc1ccc(C=Nc2ccc(S(=O)(=O)Nc3ncccn3)cc2)c(O)c1 [3d, 4-(2-Hydroxy-4-methoxybenzylideneamino)-N-(pyrimidin-2-yl)benzenesulfonamide] | – | 266 to 267 | – | – | –
O=S(=O)(Nc1ncccn1)c1ccc(N=Cc2ccc(O)cc2)cc1 [3t, 4-(4-Hydroxybenzylideneamino)-N-(pyrimidin-2-yl)benzenesulfonamide] | – | 271 to 273 | 8.9 ± 2.45 | – | –

Source: article PMC8460821, “Bio-oriented synthesis of new sulphadiazine derivatives for urease inhibition and their pharmacokinetic analysis” (Scientific Reports, 2021)
